In patent publication US20080214666A1, “Products and Methods Related to Mono-Methyl Branched-Chain Fatty Acids” (The Regents of the University of Colorado, priority 2004, published 2008):
“Also recorded” adds a separate entry of the source.

Key:
[1] = tested on: elo-5(RNAi) worms; assay: GC analysis of FA composition in elo-5(RNAi) worms grown on supplemented plates; type: in vivo, Caenorhabditis elegans; settings: for incorporation of the supplement into lipids and its elongation (GC): elo-5(RNAi) worms on supplemented plates; for elongation of the supplement to C17ISO: added as food supplements
Experimental: A mixed population of well-fed worms were washed off the plates with water, rinsed 3-4 times, and, after aspirating away water, were frozen at −80° C. Fatty Acid Methyl Esters and lipid extraction were performed as described (Miquel and Browse 1992). GC was performed on the HP6890N (Agilent) equipped with a DB-23 column (30 m×250 μm×0.25 μm) (Kniazeva, Sieber et al. 2003). Each experiment was repeated at least five times. Average values and standard deviations were then calculated for each of the compounds in the experiments.
(§1) Ninety μl of the 4 mM solution of FA (Sigma) in 1% NP40 or 10% DMSO was dropped on the side of the bacterial lawn that contained either elo-5 dsRNA-producing plasmid or the control HT115 vector. Two synchronized young adults were plated and their progeny was scored 4 and 5 days later. Each experiment was performed in at least 30 replicates. For recovering elo-5(RNAi) worms from L1 arrest, wild type adults were placed on the elo-5(RNAi) plates. Four days later, their progeny was removed and eggs of the next generation were left on the plates. Hatched L1 were kept for two or four days before transferring as agar chunks to new elo-5(RNAi) plates. FA supplements were added to spots next to the chunks. Ten plates were prepared for each FA supplement. Control plates contained no supplements. […] Neither C15 nor C17 mmBCFA added to let-418(RNAi) plates modified the expected phenotype.

[2] = tested on: elo-5(RNAi) L1-arrested worms; assay: Recovery of elo-5(RNAi) worms from L1 arrest with FA supplements; type: in vivo, Caenorhabditis elegans
Experimental: as §1

[3] = tested on: elo-5(gk208); assay: Rescue, growth and maturation of the elo-5(gk208) mutant on supplemented plates; type: in vivo, C. elegans
[4] = tested on: lpd-1(RNAi) animals; assay: Rescue of lpd-1(RNAi) feeding defects by supplement; type: in vivo, C. elegans; settings: supplement added to the plates
[5] = tested on: mmBCFA deficient early L1 larvae; assay: Feeding of mmBCFA deficient early L1 larvae on plates without bacteria; type: in vivo, C. elegans; settings: supplements on the plates without bacteria
[6] = tested on: elo-5(RNAi) worms; assay: Phenotype rescue of elo-5(RNAi) worms using FA supplements; type: in vivo, Caenorhabditis elegans; settings: for plates on which the supplement rescued the elo-5 RNAi defects: FA supplement (90 μl of 4 mM) on elo-5(RNAi) plates, progeny scored 4 and 5 days later, rescued/total plates; for rescue of mmBCFA deficiency: added as food supplements; for rescue of elo-5(RNAi) phenotype: animals grown on elo-5 RNAi plates with supplement or mmBCFA-producing bacteria; for plates with partial rescue of the elo-5 RNAi defects: FA supplement on elo-5(RNAi) plates, partially rescued/total plates
Experimental: The RNAi feeding strain was E. coli HT115 transformed with either empty pPD129.36 vector (controls) or with dsRNA-producing constructs. Unless stated differently, wild type N2 Bristol animals were plated as synchronized adults.
Ninety μl of the 4 mM solution of FA (Sigma) in 1% NP40 or 10% DMSO was dropped on the side of the bacterial lawn that contained either elo-5 dsRNA-producing plasmid or the control HT115 vector. Two synchronized young adults were plated and their progeny was scored 4 and 5 days later. Each experiment was performed in at least 30 replicates. For recovering elo-5(RNAi) worms from L1 arrest, wild type adults were placed on the elo-5(RNAi) plates. Four days later, their progeny was removed and eggs of the next generation were left on the plates. Hatched L1 were kept for two or four days before transferring as agar chunks to new elo-5(RNAi) plates. FA supplements were added to spots next to the chunks. Ten plates were prepared for each FA supplement. Control plates contained no supplements.

[7] = tested on: human cancer; settings: Yang, Liu et al. 2000; cited from earlier work
[8] = Elongation of exogenous short chain mmBCFA in cultured human cells; type: cell-based
[9] = tested on: N2; assay: Growth and maturation of wild type N2 on supplemented plates; type: in vivo, C. elegans
[10] = tested on: mouse C2C12 (myoblasts); assay: Elongation of exogenous short chain mmBCFA in cultured mouse cells; type: cell-based

With `CC(C)CCCCCCCCCCCCCC(=O)O` [C17ISO, 15-methyl hexadecanoic acid] the “incorporation of the supplement into lipids and its elongation (GC)” value (“incorporation” for short) [1] was “significantly incorporated into lipids”, the “arrested L1 rescued to full growth and proliferation” value (from here on “arrested L1 rescued”) ([2]; four-day-old L1) was roughly 1% and the “arrested L1 rescued” value ([2]; two day-arrested L1) was “about 50%”. For the same compound, the “growth of homozygous elo-5(gk208) on supplemented plates” value ([3]; plates supplemented or seeded) was “grew normally; also recorded: grew without any obvious morphological defects”, the “rescue of lpd-1 RNAi feeding defects (slow growth, morphological abnormalities, egg-laying defects)” value [4] was “did not significantly rescue these defects” and the “development of early L1 arrested larvae” value [5] was “able to elongate and proceed to the mid-L1 stage”. The “plates on which the supplement rescued the elo-5 RNAi defects” value [6] was 52/60, the “rescue of mmBCFA deficiency” value [6] was “rescue mmBCFA deficiency” and the “rescue of elo-5(RNAi) phenotype” value [6] was “fully rescued”.

For `CCCCCC/C=C\CCCCCCCC(=O)O` [C16:1 n7, reference compound], the “plates on which the supplement rescued the elo-5 RNAi defects” value [6] was 0/30.

With `COC(=O)CCCCCCCCCC(C)C` [C13ISO-methyl ester] the “elongation of the supplement to C17ISO” value [1] was “can be efficiently elongated to C17ISO”.

With `COC(=O)CCCCCCCCCCCC(C)C` [C15ISO-methyl ester] the “elongation of the supplement to C17ISO” value [1] was “can be efficiently elongated to C17ISO”.

With `CCCCCCCCCCCCCCCC(=O)O` [C16:0, palmitic acid, reference compound] the “plates on which the supplement rescued the elo-5 RNAi defects” value [6] was 0/30.

In the case of `CC(C)CCCCCCCCCCCCCCCC(=O)O` [C19ISO, reference compound], the “plates on which the supplement rescued the elo-5 RNAi defects” value [6] is reported as 0/30.

With `CCCCC/C=C\C/C=C\C/C=C\CCCCC(=O)O` [C18:3 n6, reference compound] the “plates on which the supplement rescued the elo-5 RNAi defects” value [6] was 0/30.

In the case of `CCCCCCCCCCCCCCCCC(=O)O` [C17:0, reference compound], the “plates on which the supplement rescued the elo-5 RNAi defects” value [6] is reported as 0/30.

In the case of `CCC(C)CCCCCCCCCCCCC(=O)O` (stereo not shown) [C17anteISO, 14-methyl hexadecanoic acid], the “incorporation” value [1] is reported as “significantly incorporated into lipids”, the “arrested L1 rescued” value ([2]; four-day-old L1) is reported as roughly 1% and the “arrested L1 rescued” value ([2]; two day-arrested L1) is reported as “about 50%”. The “plates on which the supplement rescued the elo-5 RNAi defects” value [6] was 58/60 and the “rescue of elo-5(RNAi) phenotype” value [6] was “fully rescued”.

In the case of `CC(C)CCCCCCCCCCCC(=O)O` [C15ISO, 13-methyl myristic acid], the “incorporation” value [1] is listed as “no accumulation of C15ISO or its elongation to C17ISO was detectable”, the “effect on human cancer” value [7] is listed as “growth inhibitor of human cancer where it selectively induces apoptosis” and the “plates with partial rescue of the elo-5 RNAi defects” value [6] is listed as 23/38. For the same compound, the “rescue of mmBCFA deficiency” value [6] was “rescue mmBCFA deficiency” and the “rescue of elo-5(RNAi) phenotype” value [6] was “partially rescued”.

In the case of `CCC(C)CCCCCCCCCCC(=O)O` (stereo not shown) [C15anteISO], the “plates with partial rescue of the elo-5 RNAi defects” value [6] is reported as 20/28.

For `CC(C)CCCC(C)CCCC(C)CCCC(C)CC(=O)O` (stereo not shown) [phytanic acid, reference compound], the “plates on which the supplement rescued the elo-5 RNAi defects” value [6] was 0/30.

With `CC(C)CCCCCCCCCCCCCCC(=O)O` [C18ISO, reference compound] the “plates on which the supplement rescued the elo-5 RNAi defects” value [6] was 0/30.

With `CC(C)CCCCCCCCCC(=O)O` [C13ISO] the “elongation into C15ISO and C17ISO in vitro” value ([8]; RIN-M5F (pancreatic beta cells)) was “able to elongate”, the “elongation into C15ISO and C17ISO in vitro” value ([8]; SY-5Y (neuroblastoma)) was “able to elongate” and the “egg laying and survival on the second day of adulthood” value ([3]; elo-5(gk208), 0.75 mM and 1 mM) was “fail to lay eggs and die a few days later”. The growth rate ([3]; elo-5(gk208), 0.75 mM and 1 mM) was “grow as fast as N2 without supplements”, the “developmental stage on forth day after hatching” value ([3]; elo-5(gk208), 10 mM) was “remain at L4 or young adults stages” and the “effect on growth and maturation” value ([3]; elo-5(gk208), 2.5-10 mM) was “slowing at the L4 stage accompanied by a delay in the adult maturation”. The brood size ([3]; elo-5(gk208), high concentrations (2.5-10 mM)) was “maintain wild type brood size”, the “animals that reach adulthood and have viable progeny” value ([3]; supplement concentration above 0.75 mM) was 100% and the “rescue from elo-5(gk208) phenotype” value ([3]; supplement concentration range 0-0.5 mM) was “no rescue; also recorded: does not rescue”. The growth rate ([9]; N2, 0.75 mM and 1 mM) was “grow as fast as N2 without supplements”, the “developmental stage on forth day after hatching” value ([9]; N2, 10 mM) was “remain at L4 or young adults stages” and the “effect on growth and maturation” value ([9]; N2, 2.5-10 mM) was “slowing at the L4 stage accompanied by a delay in the adult maturation”. The brood size ([9]; N2, high concentrations (2.5-10 mM)) was “maintain wild type brood size”, the “ability to modulate growth rate between L4 and adult stage” value ([9]; dietary supplement) was “modulate growth rate between L4 and adult stage” and the “plates on which the supplement rescued the elo-5 RNAi defects” value [6] was 0/30. For the same compound, the “rescue of mmBCFA deficiency” value [6] was “rescue mmBCFA deficiency” and the “elongation into C15ISO and C17ISO in vitro” value [10] was “able to elongate”.
